How the values were obtained:
[1] = system: interleukin-6 release from MG63 osteoblast-like cells; assay: Inhibition of E. coli LPS-stimulated interleukin-6 release from cultured MG63 osteoblast-like cells; format: cell-based, human; settings: E. coli LPS 25 ng/ml
Text: 1. There are numerous factors that regulate bone physiology. Targeting the agents that induce bone resorption by recruiting/activating the cells that induce bone loss (the osteoclasts) has had limited exposure/efficacy. Most current therapies target the osteoclasts once they have been recruited or activated. A family of locally (bone) produced proteins called cytokines can induce a range of stimuli that can affect osteoclast number/activity. One of these cytokines is called interleukin-6 (IL-6). IL-6 is released by many cell types, including the bone forming cells (osteoblasts), following challenge from a range of agonists. These agonists can be physiological (1,25(OH)2 vitamin D3, interleukin-1β) or pathophysiological (interleukin-1β; bacterial endotoxin). • In vitro studies focussed on an immortalised osteoblast-like cell line called MG63 that was derived from a human osteosarcoma (bone cancer). These cells were cultured and screened for their ability to synthesize and release a range of cytokines including IL-6. Due to the well described activities of IL-6 induced bone loss this cytokine was focussed upon (see Manolagas S. C., Ann N Y Acad. Sci. 1998 May 1; 840:194-204). […] IL-6 can be measured by commercial immunoassays, for example, the QuantiGlo IL-6 Immunoassay from R&D systems.

[2] = system: osteoblast-like MG63 cells; assay: Viability of MG63 cells by uptake of 3H labelled Thymine in the formation of DNA; format: cell-based, human; settings: concentrations 10^−8M to 10^−5M, compared with control samples
[3] = system: cultured cell lines derived from skin and liver; assay: Cell toxicity in cultured cell lines derived from skin and liver; format: cell-based
[4] = system: bone loss induced by oviarectomy; assay: Oviarectomized (oestrogen deficient) mouse model of osteoporosis, tibial μCT; format: in vivo, C57Black mice; settings: OVx mice, 15 μg/mouse/day intraperitoneally, 5 weeks
Text: The most widely accepted animal model of osteoporosis is the oestrogen deficient rodent, with this model the effect of the present invention has been tested in vivo. All procedures were done under Home Office licence and full local ethical requirements. C57Black mice were randomly assigned to receive total bi-lateral oviarectomy or sham operation. The oviarectomized animals were randomly assigned for treatment or to an untreated control group. At operation eight animals were in each group. • The mice were housed under standard animal house conditions with 12 hour light dark cycles in temperature and humidity controlled conditions for 5 weeks. The Sham and control oviarectomized mice received 10% ethanol in saline vehicle injections intraperitoneally once per day. The NaQuinate treated mice received a single injection (15 μg/mouse/day) administered in 10% ethanol in saline injections intraperitoneally. All mice received the same volume of test sample and this complied with Home Office regulations. • After 5 weeks treatment the animals were sacrificed by a Schedule 1 method and the tibiae removed for X-ray micro-Computer Tomography (μCT) imaging analyses.

[5] = system: bone loss in neurectomized limbs; assay: Disuse osteoporosis induced by sciatic neurectomy, tibial μCT; format: in vivo, mice
Experimental: Disuse osteoporosis was induced by right side sciatic neurectomy (SN). Mice were anaesthetized with oxygen and halothane and SN was achieved by resecting a 3-4 mm segment of the sciatic nerve posterior to the hip joint. On the 4th day after surgery mice were treated with either; control or NaQuinate for 5 days/week for 2 weeks. The tibias of both limbs were analysed by micro computerized tomography (μCT).

[6] = neurectomized limbs, treated 5 days/week for 2 weeks
[7] = normal (non-neurectomized) bone

CC1=C(C/C=C(\C)C(=O)O)C(=O)c2ccccc2C1=O [KCAT-5C (XIV), (2E)-4-(1,4-dihydro-2-methyl-1,4-dioxonaphthalen-3-yl)-2-methylbut-2-enoic acid]
inhibition of LPS-stimulated interleukin-6 release (in words) [1]: only active inhibiting Interleukin-6 from cultured MG63 osteoblast-like cells at very high concentrations (10^−5 M)

CC1=C(CCCCCCCC(=O)O)C(=O)c2ccccc2C1=O [XV, 8-(1,4-dihydro-2-methyl-1,4-dioxonaphthalen-3-yl)octanoic acid]
inhibition of LPS-stimulated interleukin-6 release (in words) [1]: completely inactive

CC1=C(C/C=C(\C)CCC(=O)O)C(=O)c2ccccc2C1=O [NaQuinate (VIII), (4E)-6-(1,4-dihydro-2-methyl-1,4-dioxonaphthalen-3-yl)-4-methylhex-4-enoic acid]
DNA synthesis (3H-Thymine incorporation) of MG63 cells [2]: continue normal DNA synthesis under all concentrations tested | cell toxicity [3]: lack of cell toxicity | percentage bone content (bone volume) in the trabecular compartment [4]: completely attenuated the bone loss | trabecular number, tibial trabecular compartment [4]: completely attenuated the bone loss | bone loss assessed by % bone volume [5, 6]: inhibits bone loss in neurectomized limbs | bone loss assessed by trabecular number [5, 6]: inhibits bone loss in neurectomized limbs | normal bone trabecular number [5, 7]: does not alter normal bone trabecular number | normal bone volume [5, 7]: does not alter normal bone volume
